Test results taken from patent publication US8614091B2, “PNMT as a novel marker for progenitor cells” (priority 2004, dated 2013).
“Also recorded” adds a separate entry of the source.

How the values were obtained:
[1] = test system: Dbh-/- embryos; conditions: DOPS in the maternal drinking water; cited from earlier work
[2] = test system: neonatal rat cardiomyocytes; assay: Beating rate measurements in cultured neonatal rat cardiomyocytes; format: cell-based; conditions: for decrease in the beating rate: acute, spontaneously beating cultures after 7 d; for effect on beating rate, acute treatment: increasing concentrations, within seconds to 1-2 min after drug application, normal serum
Experimental: D) Preparation of rat neonatal cardiomyocyte cultures. […] The heart was immediately removed under aseptic conditions and placed in ice-cold sterile HBSS (no Ca^++ or Mg^++). Enzymatic and mechanical dissociation of cardiomyocytes was then performed using the Neonatal Cardiomyocyte Isolation System supplied by Worthington Biochemicals (Freehold, N.J., U.S.A.). The hearts were minced on ice and digested overnight at 4° C. with purified trypsin (10 μg/mL) in HBSS. On the following morning, the digested tissue was transferred to a 50-mL conical tube and purified soybean trypsin inhibitor (40 μg/mL) was added to terminate trypsinization. The tissue was oxygenated and warmed to 37° C. […] C. with intermittent gentle swirling. Mild trituration was then used to mechanically dissociate the digested tissue, and single-cell suspensions were obtained by filtering this digested material through 70 μm sterile mesh filters. The cells were collected by low-speed centrifugation. The supernatant was discarded and the cell pellet resuspended in DMEM (high glucose, Biofluids, Rockville, Md., U.S.A.) culture medium containing 10% defined iron-supplemented bovine calf serum (Hyclone Laboratories, Logan, Utah, U.S.A.), 2 mM glutamine, and gentamicin sulfate (50 μg/mL). In some experiments, the serum was pretreated with charcoal before adding it to the media (10% volume as above) to remove possible trace amounts of catecholamines that may have been present The cells were then “preplated” to remove fibroblasts, and the remaining cells counted and seeded onto multi-well culture plates at a density of 75,000 cells per cm^2. The media was changed every 2-3 d beginning the day after seeding. Bromodeoxyuridine (0.1 mM) was added to the culture media for the first 3 d to further minimize contamination from fibroblasts.
E) Beating rate measurements. Beating activity of cultured cardiomyocytes was measured by edge-detection using photodiode sensors attached to a monitor screen depicting beating cells viewed by videomicroscopy. […] The photodiode sensor signal was filtered with an 8-pole Bessel low-pass filter (Model 900CT, Frequency Devices, Inc., Havervill, Mass., U.S.A.) with a cutoff frequency of 1000 Hz, and relayed to a PC equipped with a National Instruments data acquisition board and LabView 4.0 processing software. Parallel outputs were also directed to a Gould TA550 chart recorder and an oscilloscope. Data were continuously acquired and stored to disk for later analysis. Drugs were added and immediately mixed in the media overlying the cells in each well. Predrug (baseline) measurements were performed first, and the indicated drug(s) were added as a 100× stock to the preexisting media on each well, and rapidly mixed. Beating rates were remeasured within 2-3 min after drug addition.
F) Data analysis. The number of beating rate measurements was typically obtained from different wells of multi-well plates (usually six wells per plate), seeded from the same preparation of myocytes. Measurements were obtained immediately before and after the addition of specified drugs. In the reserpine experiment, beating rate measurements were obtained at multiple time-points after drug administration. Each experiment was replicated at least twice using independently isolated cultures, and a representative result from each is shown. Unless otherwise indicated, all beating rate measurements were performed on cells that had been cultured for 7-9 d. All data are expressed as mean.+−.SEM. Statistical significance was assessed by one-way ANOVA, with p<0.05 required to reject the null hypothesis. Posthoc testing was performed using Bonferroni's correction for multiple comparisons.

N[C@H](C(=O)O)[C@H](O)c1ccc(O)c(O)c1 [DOPS]
rescue of Dbh-/- embryos that die of cardiovascular failure in utero [1]: rescued

CNC[C@H](O)c1cccc(O)c1 [L-phenylephrine]
reversal of prazosin-induced decrease in beating rate ([2]; L-phenylephrine at increasing concentrations, in presence of prazosin 1 μM, charcoal-stripped serum): dose-dependent reversal; also recorded: reversed

CNC[C@H](O)c1ccc(O)c(O)c1 [epinephrine]
rescue of timolol-suppressed beating rate in charcoal-stripped serum media ([2]; epinephrine 1 μM added in presence of timolol 10 μM): fully rescued; also recorded: full recovery of beating rate | duration of recovery of beating rate ([2]; epinephrine 1 μM in presence of timolol 10 μM, charcoal-stripped serum): 30 to 60 min

NC[C@H](O)c1ccc(O)c(O)c1 [norepinephrine]
reversal of reserpine-induced decrease in beating rate ([2]; NE 1 μM, about 2 min after addition, after 8 h of reserpine 2.5 μM): largely reversed

COc1cc2nc(N3CCN(C(=O)c4ccco4)CC3)nc(N)c2cc1OC [prazosin]
decrease in the beating rate ([2]; 1 μM prazosin): ~25% | decrease in the beating rate ([2]; 10 μM prazosin): > 85% | effect on beating rate, acute treatment [2]: dose-dependent decreases in the beating rate | effect on beating rate in media with charcoal-stripped serum ([2]; prazosin 1 μM vs baseline control): significant decreases in beating rates; also recorded: significant reduction in the beating rate

COC(=O)[C@H]1[C@H]2C[C@@H]3c4[nH]c5cc(OC)ccc5c4CCN3C[C@H]2C[C@@H](OC(=O)c2cc(OC)c(OC)c(OC)c2)[C@@H]1OC [reserpine]
effect on beating rate, catecholamine depletion ([2]; increasing concentrations of reserpine, measured up to 8 h): Significant dose-dependent decreases in beating rates

CC(C)(C)NC[C@H](O)COc1nsnc1N1CCOCC1 [timolol]
effect on beating rate, acute treatment [2]: significant concentration-dependent slowing in the beating rate | effect on beating activity in media with charcoal-stripped serum ([2]; timolol 10 μM, continuous, assessed at 24 and 72 h): strongly suppressed beating activity
